Patent publication US7928060B2, “Amylin family polypeptide-6 (AFP-6) analogs and methods of making and using them” (Amylin Pharmaceuticals, Inc., priority 2004, dated 2011)

Tests used:
Format in all cases: in vivo, rat
[1] = plasma ionized calcium in rats; settings: subcutaneous, samples of Example 4
Description: Using the samples obtained from Example 4, ionized calcium was measured in plasma samples obtained from gastric emptying experiments described above, using an ion selective electrode, Ciba/Corning 634 Ca/pH analyzer (Ciba/Corning, Inc., Medfield, Mass.).

rats = test: telemetry of cardiovascular parameters in conscious rats; settings: 10 nmol/kg intravenous
From the text: Telemetry allows for real-time hemodynamic readings including arterial pressure, heart rate, arterial dP/dt, ECG (with waveform intervals) and core temperature via an implanted radio transmitter in conscious, non-anesthetized, unrestrained rats. […] Remote intravenous dosing is achieved through in-dwelling vascular access ports.

Sprague-Dawley rats = test: 1-week continuous subcutaneous infusion in high fat-fed rats: food intake and body weight; settings: 75 nmol/kg/day
From the text: Individually housed male Sprague-Dawley® rats (beginning weight=310 g; 12-h light/dark cycle) were maintained on a high fat (HF) diet (Research Diet 58% kcal from fat). Rats were fattened for 34 days. At the end of the fattening period, 7-day osmotic pumps (Durect Corp.) were implanted interscapularly under anesthesia (body weight at time of implant=403 g). The rats received pumps delivering compound or vehicle (50% DMSO). The following compounds were examined at a 75 nmol/kg/day dose: AFP-6, and an AFP-6 analog SEQ ID NO:32. Food intake and body weight measurements were obtained on day 2 and day 7. Group differences were analyzed using analysis of variance (ANOVA) and Fisher's Least-Significant Difference test.

CSCC[C@H](NC(=O)[C@H](CC(C)C)NC(=O)[C@H](CCC(N)=O)NC(=O)[C@H](Cc1c[nH]c2ccccc12)NC(=O)[C@H](CC(C)C)NC(=O)[C@H](CCCNC(=N)N)NC(=O)[C@H](Cc1c[nH]cn1)NC(=O)[C@H](CO)NC(=O)[C@H](CC(C)C)NC(=O)[C@H](CC(N)=O)NC(=O)[C@H](CCC(N)=O)NC(=O)[C@@H](NC(=O)[C@H](CCC(N)=O)NC(=O)[C@@H]1CSSC[C@H](NC(=O)CNC(=O)[C@@H](NC(=O)[C@H](CCCNC(=N)N)NC(=O)[C@H](CC(C)C)NC(=O)[C@H](CC(C)C)NC(=O)[C@H](CCC(N)=O)NC(=O)[C@H](C)NC(=O)[C@H](CCC(N)=O)NC(=O)[C@@H](N)[C@@H](C)O)C(C)C)C(=O)N[C@@H](C(C)C)C(=O)N[C@@H](CC(C)C)C(=O)NCC(=O)N[C@@H]([C@@H](C)O)C(=O)N1)C(C)C)C(=O)NCC(=O)N1CCC[C@H]1C(=O)N[C@@H](C)C(=O)NCC(=O)N[C@@H](CCCNC(=N)N)C(=O)N[C@@H](CCC(N)=O)C(=O)N[C@@H](CC(=O)O)C(=O)N[C@@H](CO)C(=O)N[C@@H](C)C(=O)N1CCC[C@H]1C(=O)N[C@H](C(=O)N[C@@H](CC(=O)O)C(=O)N1CCC[C@H]1C(=O)N[C@@H](CO)C(=O)N[C@@H](CO)C(=O)N1CCC[C@H]1C(=O)N[C@@H](Cc1c[nH]cn1)C(=O)N[C@@H](CO)C(=O)N[C@@H](Cc1ccc(O)cc1)C(N)=O)C(C)C [SEQ ID NO: 1]
ED50, decrease of plasma ionized calcium [1]: 0.025 mg/kg | profile over all three cardiovascular parameters (rats): profile more amylin-like than adrenomedullin like | body weight gain compared to Vehicle (Sprague-Dawley rats; Day 7): significantly less body weight gain than Vehicle | percent body weight loss (vehicle-corrected) (Sprague-Dawley rats; Day 7): 3.2% | food intake compared to Vehicle (Sprague-Dawley rats; after 2 days of treatment): significantly reduced food intake
